Target: Beta-galactosidase (Escherichia coli, UniProt Q8VNN2)
Experiment: PubChem AID 485352

Chain of Beta-galactosidase (Q8VNN2 whole entry): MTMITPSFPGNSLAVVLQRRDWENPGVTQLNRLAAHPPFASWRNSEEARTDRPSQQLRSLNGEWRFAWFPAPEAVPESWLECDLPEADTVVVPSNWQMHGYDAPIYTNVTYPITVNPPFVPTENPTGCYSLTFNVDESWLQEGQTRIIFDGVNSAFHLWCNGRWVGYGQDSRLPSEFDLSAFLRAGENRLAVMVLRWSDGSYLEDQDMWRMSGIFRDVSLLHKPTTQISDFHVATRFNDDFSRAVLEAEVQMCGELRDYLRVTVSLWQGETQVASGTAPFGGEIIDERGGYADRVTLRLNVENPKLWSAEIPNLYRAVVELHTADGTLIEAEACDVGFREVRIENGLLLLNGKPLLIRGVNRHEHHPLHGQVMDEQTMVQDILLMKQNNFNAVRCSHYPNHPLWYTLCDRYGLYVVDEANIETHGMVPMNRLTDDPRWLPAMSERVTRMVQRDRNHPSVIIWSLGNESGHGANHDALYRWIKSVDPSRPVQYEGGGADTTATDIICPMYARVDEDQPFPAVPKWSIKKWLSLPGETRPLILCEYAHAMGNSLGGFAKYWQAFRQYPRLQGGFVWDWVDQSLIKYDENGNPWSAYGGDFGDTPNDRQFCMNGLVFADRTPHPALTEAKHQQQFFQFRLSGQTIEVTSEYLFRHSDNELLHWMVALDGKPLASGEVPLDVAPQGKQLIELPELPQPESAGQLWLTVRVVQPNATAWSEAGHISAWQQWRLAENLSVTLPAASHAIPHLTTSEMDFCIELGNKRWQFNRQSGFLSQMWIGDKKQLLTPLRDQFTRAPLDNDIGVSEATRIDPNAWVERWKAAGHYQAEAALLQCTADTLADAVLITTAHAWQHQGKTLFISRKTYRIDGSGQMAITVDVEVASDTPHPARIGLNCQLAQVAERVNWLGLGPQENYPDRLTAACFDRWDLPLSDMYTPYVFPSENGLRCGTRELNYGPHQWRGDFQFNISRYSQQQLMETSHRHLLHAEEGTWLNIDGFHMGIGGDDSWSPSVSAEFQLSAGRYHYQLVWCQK

Question: Which EC50 does the source give for `CCOC(=O)C1C(C)=NC2=C(C(=O)CC(c3cccs3)C2)C1c1cccs1` (stereo unspecified) [2-Methyl-5-oxo-4,7-di-thiophen-2-yl-1,4,5,6,7,8-hexahydro-quinoline-3-carboxylic acid ethyl ester] here?
Answer: The EC50 was 39.3 µM.
